We go through three molecules from article PMC13429874, “ABHD2 activity is not required for the non-genomic action of progesterone on human sperm” (Human Reproduction (Oxford, England), 2026).

Data set [1] concerns the target T1, ABHD2^L33–E425 (Homo sapiens, UniProt P08910).
T1 construct: expression for ABHD2 amino acids L33–E425, in which a predicted transmembrane domain (amino acids 1–32) is removed; His6-FLAG (N); made in house; host or cells: E. coli BL21(DE3)-R3-pRARE2
T1 sequence (P08910 33-425): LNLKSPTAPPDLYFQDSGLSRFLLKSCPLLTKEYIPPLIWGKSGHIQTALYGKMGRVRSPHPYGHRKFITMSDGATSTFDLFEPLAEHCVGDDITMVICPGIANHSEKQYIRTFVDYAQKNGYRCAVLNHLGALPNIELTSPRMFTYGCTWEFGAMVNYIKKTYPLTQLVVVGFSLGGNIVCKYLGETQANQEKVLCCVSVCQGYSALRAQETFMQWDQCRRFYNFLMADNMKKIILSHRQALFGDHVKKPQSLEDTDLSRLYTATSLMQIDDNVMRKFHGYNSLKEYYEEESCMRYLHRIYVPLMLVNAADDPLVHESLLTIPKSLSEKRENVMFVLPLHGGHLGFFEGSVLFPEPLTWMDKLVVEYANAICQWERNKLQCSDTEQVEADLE
The data set is described as follows: ABHD2^L33-E425 fluorometric enzymatic activity assay with 7-HCA substrate. The data set is classed as biochemical.

In data set [2] the test system is human sperm. The data set is described as follows: Sperm hyperactivation assay (CASA). The data set is classed as cell-based. The settings on record: 3 µM, 30 min. The method, then:
Sperm hyperactivation was assessed in human sperm purified by density gradient centrifugation. Semen samples (n = 7) were allowed to liquefy for 15–30 min at 37°C, and up to 2 ml of liquified semen was layered onto a two-step GM501 gradient system (45%/90%; Gynemed; Sierksdorf, Germany) pre-equilibrated at 37°C. Gradients were centrifuged for 20 min at 400 × g (no break). The 90% pellet was collected, washed in SpermActive medium (Gynemed; composition per manufacturer: NaCl, KCl, MgSO4.7H2O, KH2PO4, 1.77 mM CaCl2.2H2O, D(+)-glucose anhydrous, sodium pyruvate, sodium lactate, EDTA, alanyl-glutamine, essential and non-essential amino acids, 25.71 mM NaHCO3, 15 mM HEPES, 5 g/l human serum albumin, 10 mg/l gentamicin, and phenol red), and incubated for at least 2 h at 37°C, 5% CO2.
For compound testing, sperm suspensions with 7.5 × 10^6 sperm/ml in SpermActive were treated with either DMSO (vehicle) or 10 µM test compound. For basal and induced hyperactivation conditions, DMSO or progesterone (3 µM), respectively, was added. Samples were incubated for 30 min at 37°C, 5% CO2, before motility analysis.
Motility was analyzed using a CASA system (CEROSII^TM Animal Motility, software version 1.16; Hamilton Thorne, Beverly, MA, USA), mounted on an Axiolab 5 microscope (Zeiss, Germany), equipped with a TPi-SX Thermal Plate (Tokai Hit; Shizuoka-ken, Japan) and a JAI CM-040-GE CCD camera (JAI; Tokyo, Japan). Leja slides (20 µm chamber depth; Leja Products B.V., Nieuw-Vennep, The Netherlands) were pre-warmed to 37°C, cleaned with lens paper, and loaded by capillary action with 6 µl sperm suspension; capillary correction was set to 1.3. Sperm tracks were recorded at 37°C using a 10× negative-phase objective, acquiring 60 frames at 60 Hz with 4 ms exposure and gain set to 600. For each sample and condition, 300–500 motile sperm from at least 10 non-overlapping fields were analyzed. Hyperactive sperm were identified using the SORT function with the following Boolean argument: VCL > 150 µm/s and LIN < 50% and ALH > 7 µm. For each sample and condition, the percentage of hyperactive sperm was normalized to the percentage of motile sperm, and the mean of two technical duplicates was reported.
Statistical analysis was performed using GraphPad Prism 10 for Windows (version 10.6.1). Data normality was assessed using Shapiro–Wilk test. Differences between basal and induced hyperactivation were evaluated using a paired t-test, with effective pairing confirmed across all comparisons. P < 0.05 was considered statistically significant.

Data set [3] addresses T2, full-length human ABHD2 (ABHD2^FL) (Homo sapiens, UniProt P08910).
T2 construct: TEV site-eGFP-8xHis (C, cleaved yes); made in house; host or cells: SF9 insect cells (baculovirus)
T2 sequence (P08910 1-425): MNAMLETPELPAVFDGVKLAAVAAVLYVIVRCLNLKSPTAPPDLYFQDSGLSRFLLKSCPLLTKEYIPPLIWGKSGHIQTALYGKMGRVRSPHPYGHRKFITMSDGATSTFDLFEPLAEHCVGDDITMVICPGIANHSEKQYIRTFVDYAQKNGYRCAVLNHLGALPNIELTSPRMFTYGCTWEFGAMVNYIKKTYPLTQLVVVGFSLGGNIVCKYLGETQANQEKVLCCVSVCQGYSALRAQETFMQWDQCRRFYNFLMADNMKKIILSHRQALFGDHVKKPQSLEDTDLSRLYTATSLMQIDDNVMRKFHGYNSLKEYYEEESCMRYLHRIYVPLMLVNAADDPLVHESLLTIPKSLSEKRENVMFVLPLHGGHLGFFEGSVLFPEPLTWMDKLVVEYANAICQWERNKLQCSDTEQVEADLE
Put plainly: ABHD2^FL enzymatic activity assay with 7-HCA substrate. The data set is classed as biochemical.

For data set [4], the target named is T1, ABHD2^L33–E425. The data set is described as follows: Differential scanning fluorimetry (DSF) with purified ABHD2^L33–E425. The data set is classed as binding. Background: Differential scanning fluorimetry follows unfolding on heating by fluorescence.
Data set [5] concerns the target T3, ABHD2^FL (Homo sapiens, UniProt P08910).
T3 construct: TEV site-eGFP-8xHis (C, cleaved yes); made in house; host or cells: SF9 insect cells (baculovirus)
T3 sequence (P08910 1-425): T2 sequence (P08910 1-425)
The data set is described as follows: Differential scanning fluorimetry (DSF) with purified ABHD2^FL. The format is binding. The settings on record: 20 µM.

Data set [6] deals with T4, human ABHD11 (Homo sapiens, UniProt Q8NFV4).
T4 construct: residues V34—V315 of human ABHD11; His6-TEV site (N); made in house; host or cells: E. coli
T4 sequence (Q8NFV4 25-306 limits assumed): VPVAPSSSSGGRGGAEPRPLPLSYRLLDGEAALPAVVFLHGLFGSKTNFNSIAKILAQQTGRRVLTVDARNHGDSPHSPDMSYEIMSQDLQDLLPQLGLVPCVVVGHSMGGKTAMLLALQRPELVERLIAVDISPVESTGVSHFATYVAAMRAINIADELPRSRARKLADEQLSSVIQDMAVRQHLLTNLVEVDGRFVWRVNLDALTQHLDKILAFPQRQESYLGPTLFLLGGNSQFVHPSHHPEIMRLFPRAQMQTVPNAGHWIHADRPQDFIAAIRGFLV
The data set is described as follows: ABHD11 colorimetric assay with p-nitrophenyl butyrate. The data set is classed as biochemical. To be noted: 10 µM compound, 500 µM p-NPB. How it is done: (§1) Enzymatic activities of ABHD10 and ABHD11 were measured in a colorimetric assay using p-nitrophenyl butyrate (p-NPB) as substrate. Enzymes at 1500 nM ABHD10 and 125 nM ABHD11 in 20 mM HEPES pH 7.5, 150 mM NaCl, and 2% (v/v) DMSO were pre-incubated in 96-well plates with 50 µM test compound for 30 min at 4°C. Plates were then equilibrated at 37°C for 2 min, and reactions were initiated by adding 160 µl of pre-warmed substrate solution (same buffer with 625 µM p-NPB) to a total volume of 200 µl, yielding final assay concentrations of 300 nM ABHD10, 25 nM ABHD11, and 500 µM pNPB. The substrate solution was prepared immediately before addition to the enzyme mixtures. Absorbance at 405 nm was recorded on a SpectraMax iD3 plate reader (Molecular Devices) for 20 min with continuous monitoring at 30 s intervals.

The target in data set [7] is T5, human ABHD10 (Homo sapiens, UniProt Q9NUJ1).
T5 construct: Constructs encoding amino acids T53—N306 of human ABHD10; His6-TEV site (N); made in house; host or cells: E. coli
T5 sequence (Q9NUJ1 53-306): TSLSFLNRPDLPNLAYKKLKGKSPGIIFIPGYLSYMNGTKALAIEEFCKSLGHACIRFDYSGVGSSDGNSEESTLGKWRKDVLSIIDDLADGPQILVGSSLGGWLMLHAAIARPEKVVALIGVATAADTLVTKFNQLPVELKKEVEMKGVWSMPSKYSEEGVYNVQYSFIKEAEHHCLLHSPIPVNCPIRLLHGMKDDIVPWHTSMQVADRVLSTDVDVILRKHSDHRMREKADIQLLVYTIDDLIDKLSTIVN
The data set is described as follows: ABHD10 colorimetric assay with p-nitrophenyl butyrate. The data set is classed as biochemical. The settings on record: 10 µM compound, 500 µM p-NPB. The method, then:
as §1

Data set [8] concerns the molecule itself. Put plainly: SEC; HiLoad 16/600 Superdex 75 pg, final purification step after nickel affinity; pure fractions concentrated in 20 mM HEPES pH 8, 500 mM NaCl, 10% (v/v) glycerol, 1 mM TCEP. (SEC sorts molecules by how far they enter the pores of the column.)

The IC50 is the midpoint of a concentration-inhibition curve. For orientation: stoichiometry N means the number of molecules, sites or subunits per partner or assembly.

`CC(=O)[C@H]1CC[C@H]2[C@@H]3CCC4=CC(=O)CC[C@]4(C)[C@H]3CC[C@]12C` [progesterone]: in data set [1] (5 µM steroid or triterpenoid, 300 nM 7-HCA), the “effect on enzymatic activity of purified ABHD2^L33–E425” value is recorded as “did not alter”. The “fraction of hyperactivated sperm upon stimulation” value in data set [2] is given as “increased”. Also, in data set [3] (7-HCA and RB substrates (Suppl. Fig. S4A,B), weak effects at ≥5 µM), the “effect on enzymatic activity of purified ABHD2^FL” value was “did not alter”. Also, the “effect on heat-induced denaturation of ABHD2^L33–E425 (DSF binding)” value in data set [4] (40 µM steroid, 30 min pre-incubation) is given as “did not affect”. The “effect on heat-induced denaturation of ABHD2^FL (DSF binding)” value in data set [5] is “did not affect”.
With `O=C(N1CCCCC1)N1CCCCC1c1ccccc1` (stereo not drawn) [Compound 2], the IC50 worked out at 320 nM in data set [1] (10 nM enzyme, 10 µM 7-HCA, read-out: IC50 for ABHD2^L33-425, fluorometric assay using 7-HCA) and 490 nM in data set [3] (Supplementary Table S2, read-out: IC50 measured in ABHD2^FL in the 7-HCA Assay). In addition, in data set [6], the “inhibition of ABHD11” value is recorded as “no detectable inhibition”. Further, in data set [7], the “inhibition of ABHD10” value is recorded as “no detectable inhibition”. Moreover, the “effect on melting temperature / thermal stability of ABHD2^L33-E425 (DSF), in words” value in data set [4] (10 µM compound, 30 min pre-incubation) is given as “increased melting temperature”. For the same molecule, the “ΔTm shift for ABHD2^L33-425 determined by DSF” value in data set [4] (purified protein) came to 13 °C.

B1: Truncated ABHD2 (ABHD2^L33–E425) (domain or fragment, human, UniProt P08910 33-425, looked up)
chain: T1 sequence (P08910 33-425)
notes: human ABHD2 (alpha/beta hydrolase domain-containing protein 2), Uniprot ID P08910, amino acids L33-E425; the predicted transmembrane domain (amino acids 1-32) is removed; No tag cleavage is described; Further construct details may be in the Supplementary Materials and Methods; also called ABHD2^L33-425; ABHD2 amino acids L33–E425; source: E. coli BL21(DE3)-R3-pRARE2, purified (nickel-sepharose, …)
Turning to B1, in data set [8], the “stoichiometry N” value turned out to be 4.
